# Measured values taken from ChEMBL document CHEMBL4024706 (Eur J Med Chem, 2017).
# How the values were obtained:
# [1] = biological target: RAC-gamma serine/threonine-protein kinase (Homo sapiens) (UniProt Q9Y243); assay: Inhibition of wild-type human partial length AKT3 expressed in bacterial expression system assessed as residual activity at 1 uM by Kinomescan method relative to control
# [2] = biological target: Serine/threonine-protein kinase PAK 3 (Homo sapiens) (UniProt O75914); assay: Inhibition of wild-type human full length PAK3 (M1 to R544 residues) expressed in bacterial expression system assessed as residual activity at 1 uM by Kinomescan method relative to control
# Sequence of Serine/threonine-protein kinase PAK 3 (Homo sapiens) (O75914 whole entry, looked up, the tested form may be a part): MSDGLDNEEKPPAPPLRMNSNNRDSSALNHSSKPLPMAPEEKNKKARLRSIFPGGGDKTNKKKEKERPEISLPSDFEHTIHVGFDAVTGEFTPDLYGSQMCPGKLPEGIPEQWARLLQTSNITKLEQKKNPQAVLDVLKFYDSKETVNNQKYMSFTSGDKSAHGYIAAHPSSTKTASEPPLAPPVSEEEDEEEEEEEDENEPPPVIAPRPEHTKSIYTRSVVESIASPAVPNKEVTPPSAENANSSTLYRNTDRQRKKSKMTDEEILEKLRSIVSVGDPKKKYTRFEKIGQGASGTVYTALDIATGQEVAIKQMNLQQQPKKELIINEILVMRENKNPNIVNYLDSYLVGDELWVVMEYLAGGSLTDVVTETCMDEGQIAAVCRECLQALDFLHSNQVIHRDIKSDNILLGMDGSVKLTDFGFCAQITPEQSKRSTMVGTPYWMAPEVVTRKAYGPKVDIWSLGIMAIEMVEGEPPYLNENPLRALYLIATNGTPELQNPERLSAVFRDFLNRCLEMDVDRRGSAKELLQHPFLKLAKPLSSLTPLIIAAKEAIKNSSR
# [3] = biological target: Cyclin-dependent kinase 13 (Homo sapiens) (UniProt Q14004); assay: Inhibition of wild-type human partial length CDC2L5 (H675 to S1054 residues) expressed in mammalian expression system assessed as residual activity at 1 uM by Kinomescan method relative to control
# [4] = biological target: Tyrosine-protein kinase receptor TYRO3 (Homo sapiens) (UniProt Q06418); assay: Inhibition of wild-type human partial length TYRO3 (S497 to T814 residues) expressed in bacterial expression system assessed as residual activity at 1 uM by Kinomescan method relative to control
# Sequence of Tyrosine-protein kinase receptor TYRO3 (Homo sapiens) (Q06418 whole entry, the tested form may be a part): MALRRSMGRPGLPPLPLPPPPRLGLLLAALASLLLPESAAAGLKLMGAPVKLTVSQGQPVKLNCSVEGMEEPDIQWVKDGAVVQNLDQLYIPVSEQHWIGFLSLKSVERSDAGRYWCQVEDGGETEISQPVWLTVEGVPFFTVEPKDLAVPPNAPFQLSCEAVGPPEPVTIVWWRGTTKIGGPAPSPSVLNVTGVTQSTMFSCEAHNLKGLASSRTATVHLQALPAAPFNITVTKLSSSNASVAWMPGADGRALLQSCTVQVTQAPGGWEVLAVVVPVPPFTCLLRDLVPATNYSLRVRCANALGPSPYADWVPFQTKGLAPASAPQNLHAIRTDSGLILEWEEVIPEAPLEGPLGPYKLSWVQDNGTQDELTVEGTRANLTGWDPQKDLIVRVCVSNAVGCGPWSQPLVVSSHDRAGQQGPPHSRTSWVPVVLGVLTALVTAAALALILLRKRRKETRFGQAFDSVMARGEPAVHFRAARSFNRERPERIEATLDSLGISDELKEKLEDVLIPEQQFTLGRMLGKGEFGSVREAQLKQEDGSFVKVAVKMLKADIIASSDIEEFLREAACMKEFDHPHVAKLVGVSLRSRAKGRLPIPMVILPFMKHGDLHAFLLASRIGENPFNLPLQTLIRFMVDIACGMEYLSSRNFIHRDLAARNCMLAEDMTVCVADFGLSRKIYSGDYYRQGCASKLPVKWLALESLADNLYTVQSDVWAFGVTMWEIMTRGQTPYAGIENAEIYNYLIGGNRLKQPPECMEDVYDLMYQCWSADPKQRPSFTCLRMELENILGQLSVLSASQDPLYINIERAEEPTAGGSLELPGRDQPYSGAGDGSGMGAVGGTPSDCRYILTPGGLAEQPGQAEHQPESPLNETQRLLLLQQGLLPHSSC
# Pfeiffer = assay: Induction of apoptosis in human Pfeiffer cells assessed as induction of caspase-3 cleavage after 48 hrs by immunoblot; type: functional, cell-based
# [5] = biological target: Activin receptor type-2A (Homo sapiens) (UniProt P27037); assay: Inhibition of wild-type human ACVR2A (V171 to T499 residues) expressed in bacterial expression system assessed as residual activity at 1 uM by Kinomescan method relative to control
# [6] = biological target: Megakaryocyte-associated tyrosine-protein kinase (Homo sapiens) (UniProt P42679); assay: Inhibition of wild-type human full length CTK (M43 to P508 residues) expressed in mammalian expression system assessed as residual activity at 1 uM by Kinomescan method relative to control
# [7] = biological target: cAMP-dependent protein kinase catalytic subunit beta (Homo sapiens) (UniProt P22694); assay: Inhibition of wild-type human full length PKAC-beta (M1 to F351 residues) expressed in bacterial expression system assessed as residual activity at 1 uM by Kinomescan method relative to control
# [8] = biological target: Wee1-like protein kinase 2 (Homo sapiens) (UniProt P0C1S8); assay: Inhibition of wild-type human partial length WEE2 (M204 to K492 residues) expressed in bacterial expression system assessed as residual activity at 1 uM by Kinomescan method relative to control
# [9] = biological target: Tyrosine-protein kinase BTK (Homo sapiens, UniProt Q06187); assay: Inhibition of full length recombinant human N-terminal His tagged […] expressed in baculovirus infected Sf9 insect cells using poly (Glu,Tyr)4:1 as substrate pretreated for 60 mins followed by substrate addition after 1 hr by ADP-Glo luminescence assay
# [10] = biological target: Tyrosine-protein kinase Yes (Homo sapiens) (UniProt P07947); assay: Inhibition of wild-type human partial length YES (T257 to L543 residues) expressed in bacterial expression system assessed as residual activity at 1 uM by Kinomescan method relative to control
# [11] = biological target: Serine/threonine-protein kinase Chk1 (Homo sapiens) (UniProt O14757); assay: Inhibition of wild-type human partial length CHEK1 (M1 to G289 residues) expressed in bacterial expression system assessed as residual activity at 1 uM by Kinomescan method relative to control
# [12] = biological target: Serine/threonine-protein kinase pim-2 (Homo sapiens) (UniProt Q9P1W9); assay: Inhibition of wild-type human partial length PIM2 (M1 to E291 residues) expressed in bacterial expression system assessed as residual activity at 1 uM by Kinomescan method relative to control
# [13] = biological target: Cyclin-dependent kinase-like 5 (Homo sapiens) (UniProt O76039); assay: Inhibition of wild-type human partial length CDKL5 (M1 to S337 residues) expressed in mammalian expression system assessed as residual activity at 1 uM by Kinomescan method relative to control
# Sequence of Cyclin-dependent kinase-like 5 (Homo sapiens) (O76039 whole entry, the tested form may be a part): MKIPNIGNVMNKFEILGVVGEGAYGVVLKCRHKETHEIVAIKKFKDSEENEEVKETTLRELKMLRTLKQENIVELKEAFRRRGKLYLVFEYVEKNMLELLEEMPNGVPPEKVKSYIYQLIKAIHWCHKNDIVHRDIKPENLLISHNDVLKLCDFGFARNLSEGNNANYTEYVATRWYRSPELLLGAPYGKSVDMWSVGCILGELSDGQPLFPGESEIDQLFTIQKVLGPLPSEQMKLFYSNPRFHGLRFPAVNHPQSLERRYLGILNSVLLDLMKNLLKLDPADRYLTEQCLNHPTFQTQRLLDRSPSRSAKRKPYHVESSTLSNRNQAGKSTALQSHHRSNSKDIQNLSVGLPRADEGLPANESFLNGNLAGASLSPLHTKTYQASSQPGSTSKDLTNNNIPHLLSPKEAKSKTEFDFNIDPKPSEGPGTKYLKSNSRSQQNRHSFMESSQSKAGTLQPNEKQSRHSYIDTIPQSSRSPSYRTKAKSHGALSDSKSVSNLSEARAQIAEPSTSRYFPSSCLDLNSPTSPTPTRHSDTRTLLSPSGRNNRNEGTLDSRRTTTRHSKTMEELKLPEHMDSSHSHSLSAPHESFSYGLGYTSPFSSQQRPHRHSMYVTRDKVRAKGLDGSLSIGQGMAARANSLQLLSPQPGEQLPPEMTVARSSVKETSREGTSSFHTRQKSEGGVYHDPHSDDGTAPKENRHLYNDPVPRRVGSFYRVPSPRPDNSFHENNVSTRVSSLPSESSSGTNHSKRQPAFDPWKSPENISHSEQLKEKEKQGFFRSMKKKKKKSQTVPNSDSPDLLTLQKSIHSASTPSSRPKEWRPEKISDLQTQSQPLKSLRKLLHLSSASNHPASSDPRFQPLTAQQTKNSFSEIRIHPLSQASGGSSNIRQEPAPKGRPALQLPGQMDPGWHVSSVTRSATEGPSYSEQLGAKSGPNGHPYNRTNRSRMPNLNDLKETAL
# [14] = biological target: Eukaryotic translation initiation factor 2-alpha kinase 1 (Homo sapiens) (UniProt Q9BQI3); assay: Inhibition of wild-type human partial length EIF2AK1 (Q147 to E603 residues) expressed in mammalian expression system assessed as residual activity at 1 uM by Kinomescan method relative to control
# Sequence of Eukaryotic translation initiation factor 2-alpha kinase 1 (Homo sapiens) (Q9BQI3 whole entry, the tested form may be a part): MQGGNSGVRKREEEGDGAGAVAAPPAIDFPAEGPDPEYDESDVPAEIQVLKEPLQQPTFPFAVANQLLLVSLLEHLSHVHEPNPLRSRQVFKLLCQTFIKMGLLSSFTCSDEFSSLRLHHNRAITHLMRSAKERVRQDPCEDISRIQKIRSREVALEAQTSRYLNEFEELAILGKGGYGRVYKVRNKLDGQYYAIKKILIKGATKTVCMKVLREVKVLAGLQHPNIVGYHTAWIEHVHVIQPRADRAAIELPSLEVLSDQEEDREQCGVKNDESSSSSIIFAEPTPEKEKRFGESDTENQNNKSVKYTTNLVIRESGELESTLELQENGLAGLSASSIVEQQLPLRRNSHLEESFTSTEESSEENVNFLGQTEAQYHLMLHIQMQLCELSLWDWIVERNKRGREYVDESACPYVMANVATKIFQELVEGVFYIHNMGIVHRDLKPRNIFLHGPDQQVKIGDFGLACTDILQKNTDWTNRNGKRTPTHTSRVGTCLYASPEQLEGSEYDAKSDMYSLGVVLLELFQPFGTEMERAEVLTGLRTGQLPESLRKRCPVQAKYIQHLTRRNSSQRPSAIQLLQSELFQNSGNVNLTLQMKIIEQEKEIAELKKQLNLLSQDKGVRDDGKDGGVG
# [15] = biological target: Serine/threonine-protein kinase 32C (Homo sapiens) (UniProt Q86UX6); assay: Inhibition of wild-type human partial length YANK3 (M68 to G486 residues) expressed in bacterial expression system assessed as residual activity at 1 uM by Kinomescan method relative to control
# Sequence of Serine/threonine-protein kinase 32C (Homo sapiens) (Q86UX6 whole entry, the tested form may be a part): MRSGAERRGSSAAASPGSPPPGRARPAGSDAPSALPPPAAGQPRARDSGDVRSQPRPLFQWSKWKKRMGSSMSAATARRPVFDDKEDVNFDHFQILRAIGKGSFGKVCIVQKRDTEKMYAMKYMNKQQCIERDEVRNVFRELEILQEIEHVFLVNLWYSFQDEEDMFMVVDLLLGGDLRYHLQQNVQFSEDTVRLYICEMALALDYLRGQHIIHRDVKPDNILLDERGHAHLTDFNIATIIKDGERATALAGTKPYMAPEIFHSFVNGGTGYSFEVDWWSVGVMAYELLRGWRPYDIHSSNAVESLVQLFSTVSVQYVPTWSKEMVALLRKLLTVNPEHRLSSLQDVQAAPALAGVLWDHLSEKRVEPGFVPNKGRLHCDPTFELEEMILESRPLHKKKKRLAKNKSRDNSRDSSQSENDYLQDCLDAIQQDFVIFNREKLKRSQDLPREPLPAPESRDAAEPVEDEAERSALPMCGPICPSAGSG
# [16] = biological target: Glycogen synthase kinase-3 beta (Homo sapiens) (UniProt P49841); assay: Inhibition of wild-type human full length GSK3B (M1 to T433 residues) expressed in mammalian expression system assessed as residual activity at 1 uM by Kinomescan method relative to control
# Sequence of Glycogen synthase kinase-3 beta (Homo sapiens) (P49841 whole entry, looked up, the tested form may be a part): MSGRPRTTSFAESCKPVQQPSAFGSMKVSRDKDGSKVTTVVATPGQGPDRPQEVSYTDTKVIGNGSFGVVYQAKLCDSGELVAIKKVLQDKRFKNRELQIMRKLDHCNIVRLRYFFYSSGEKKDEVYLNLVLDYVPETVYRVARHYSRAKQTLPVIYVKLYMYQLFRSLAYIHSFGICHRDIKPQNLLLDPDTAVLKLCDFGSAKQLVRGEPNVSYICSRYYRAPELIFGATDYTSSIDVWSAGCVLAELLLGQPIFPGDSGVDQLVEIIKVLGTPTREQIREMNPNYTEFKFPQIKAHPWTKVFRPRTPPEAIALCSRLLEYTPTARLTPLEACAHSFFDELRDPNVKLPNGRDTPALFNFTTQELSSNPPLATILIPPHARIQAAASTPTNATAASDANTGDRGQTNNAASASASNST
# [17] = biological target: Dual specificity protein kinase CLK4 (Homo sapiens) (UniProt Q9HAZ1); assay: Inhibition of wild-type human partial length CLK4 (R135 to K481 residues) expressed in bacterial expression system assessed as residual activity at 1 uM by Kinomescan method relative to control
# Sequence of Dual specificity protein kinase CLK4 (Homo sapiens) (Q9HAZ1 whole entry, looked up, the tested form may be a part, canonical isoform): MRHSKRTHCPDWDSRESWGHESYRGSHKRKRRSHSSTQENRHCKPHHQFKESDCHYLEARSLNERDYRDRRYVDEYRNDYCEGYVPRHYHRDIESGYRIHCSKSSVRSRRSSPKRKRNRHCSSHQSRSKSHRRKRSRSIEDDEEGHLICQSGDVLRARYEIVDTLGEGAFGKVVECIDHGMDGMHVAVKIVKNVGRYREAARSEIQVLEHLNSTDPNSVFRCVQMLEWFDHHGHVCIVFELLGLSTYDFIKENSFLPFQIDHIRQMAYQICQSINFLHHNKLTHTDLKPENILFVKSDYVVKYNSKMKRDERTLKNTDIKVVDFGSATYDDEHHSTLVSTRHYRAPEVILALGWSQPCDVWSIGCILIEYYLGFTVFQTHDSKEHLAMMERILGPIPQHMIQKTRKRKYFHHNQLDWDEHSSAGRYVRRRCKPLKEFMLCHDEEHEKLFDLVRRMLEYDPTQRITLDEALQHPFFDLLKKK
# [18] = biological target: Phosphorylase b kinase gamma catalytic chain, skeletal muscle/heart isoform (Homo sapiens) (UniProt Q16816); assay: Inhibition of wild-type human full length PHKG1 (M1 to Y387 residues) expressed in bacterial expression system assessed as residual activity at 1 uM by Kinomescan method relative to control
# [19] = system: Epidermal growth factor receptor (Homo sapiens), P00533 [L858R,T790M]; assay: Inhibition of human partial length EGFR L858R/T790M double mutant (R669 to V1011 residues) expressed in mammalian expression system assessed as residual activity at 1 uM by Kinomescan method relative to control
# [20] = system: Tyrosine-protein kinase ABL1 (Homo sapiens), P00519 [T315I]; assay: Inhibition of human non-phosphorylated ABL1 T315I mutant (S229 to K512 residues) expressed in mammalian expression system assessed as residual activity at 1 uM by Kinomescan method relative to control
# [21] = biological target: Serine/threonine-protein kinase Nek6 (Homo sapiens) (UniProt Q9HC98); assay: Inhibition of wild-type human full length NEK6 (M8 to T313 residues) expressed in bacterial expression system assessed as residual activity at 1 uM by Kinomescan method relative to control
# [22] = biological target: Serine/threonine-protein kinase 32A (Homo sapiens) (UniProt Q8WU08); assay: Inhibition of wild-type human full length YANK1 (M1 to L396 residues) expressed in mammalian expression system assessed as residual activity at 1 uM by Kinomescan method relative to control
# [23] = system: Epidermal growth factor receptor (Homo sapiens), P00533 [L858R]; assay: Inhibition of human partial length EGFR L858R mutant (R669 to V1011 residues) expressed in bacterial expression system assessed as residual activity at 1 uM by Kinomescan method relative to control
# [24] = biological target: Serine/threonine-protein kinase WNK1 (Homo sapiens) (UniProt Q9H4A3); assay: Inhibition of wild-type human partial length WNK1 (Q194 to A490 residues) expressed in mammalian expression system assessed as residual activity at 1 uM by Kinomescan method relative to control
# Sequence of RAC-gamma serine/threonine-protein kinase (Homo sapiens) (Q9Y243 whole entry, the tested form may be a part): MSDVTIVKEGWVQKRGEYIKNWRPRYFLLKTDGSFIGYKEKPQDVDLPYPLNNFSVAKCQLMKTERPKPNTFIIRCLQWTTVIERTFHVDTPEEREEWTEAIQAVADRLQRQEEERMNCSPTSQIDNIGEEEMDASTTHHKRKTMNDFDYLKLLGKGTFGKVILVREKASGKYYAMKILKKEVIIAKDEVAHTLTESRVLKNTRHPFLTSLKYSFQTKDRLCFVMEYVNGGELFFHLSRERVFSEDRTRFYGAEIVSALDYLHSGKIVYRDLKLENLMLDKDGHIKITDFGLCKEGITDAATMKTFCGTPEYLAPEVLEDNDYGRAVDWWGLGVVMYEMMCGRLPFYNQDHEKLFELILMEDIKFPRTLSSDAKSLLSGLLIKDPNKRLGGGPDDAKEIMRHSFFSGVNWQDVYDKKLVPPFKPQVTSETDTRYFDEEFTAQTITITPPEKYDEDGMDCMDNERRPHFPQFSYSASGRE
structure (smiles),measurement,setting,value
C=CC(=O)Nc1cc(Nc2cc(-c3cccc(NC(=O)c4ccc(C(C)(C)C)cc4)c3C)cn(C)c2=O)ccc1C(=O)N1CCOCC1,Activity,[1],95%
same,Activity,[2],71%
same,Activity,[3],100%
same,Activity,[4],75%
same,Activity,Pfeiffer,Dose-dependent effect
same,Activity,[5],90%
same,Activity,[6],100%
same,Activity,[7],96%
same,Activity,[8],100%
same,IC50,[9],7 nM
same,Activity,[10],93%
same,Activity,[11],100%
same,Activity,[12],90%
same,Activity,[13],100%
same,Activity,[14],84%
same,Activity,[15],97%
same,Activity,[16],87%
same,Activity,[17],90%
same,Activity,[18],100%
same,Activity,[19],89%
same,Activity,[20],99%
same,Activity,[21],98%
same,Activity,[22],83%
same,Activity,[23],100%
same,Activity,[24],89%
